{
  "source": "patent US11491155B2",
  "about": "“Salt of a pyrimido[6,1-A]isoquinolin-4-one compound” (VERONA PHARMA PLC, priority 2015, dated 2022)",
  "key": {"[1]": {"assay": "Physico-chemical characteristics of salt candidates: solubility in water, pH of aqueous suspension/solution, form post water maturation", "details": "listed as Methane sulfonic", "procedure": "The physico-chemical characteristics of the salt candidates were determined."}, "[2]": {"assay": "RPL554 content and content uniformity of 1% w/w lactose powder blends", "assay_type": "physicochemical", "description": "Batches (approximately 5 g) of 1% w/w RPL554 free base or salt variants: lactose blends were prepared. In brief, the RPL554 free base or salt plus a small quantity of lactose was passed through a 38 μm sieve. The sieved material plus the remaining lactose was mixed in a glass mortar prior to transfer to a stainless steel screw cap jar and further mixing (10 minutes at 46 rpm) conducted using a Turbula blender. The composition of the dry powder blend was 0.05 g API and 4.95 g lactose.\nIn order to determine the content uniformity of the blends, aliquots (approx. 20 mg) of powder were sampled from each blend, accurately weighed, and diluted to volume in 10 mL volumetric flasks with diluent. The flasks were sonicated for 3 minutes before samples were transferred to HPLC vials for analysis."}, "[3]": {"assay": "Primary particle size analysis by laser light diffraction (Mastersizer 2000)", "assay_type": "physicochemical", "details": "micronised, mean n=3", "description": "A Mastersizer 2000 fitted with a Scirocco 2000 dry powder dispersion unit (Malvern Instruments Ltd, UK) was used to analyse the primary particle size of the micronised RPL554 and salt variants. The salts (50 mg) were automatically sampled via a vibrating feed control at a feeder rate of 60% and dispersed in compressed air at a pressure of 3 bar."}, "[4]": {"assay": "Intrinsic dissolution of compressed tablet, pH 7.0, 37° C. (Sirius inForm)", "assay_type": "physicochemical", "details": "for mass dissolved: before precipitation", "description": "The dissolution assay (pH-dependent sample dissolution) was investigated using the Sirius inForm.\nDissolution of a compressed tablet of the compound was monitored in a pH 7.0 aqueous dissolution experiment (0.15 M NaCl) at 37° C. using UV-absorption spectroscopy in 2 hour experiments. A tablet with a diameter of 3 mm, requiring approximate weights of 10 mg was compressed under a weight of 100 kg load force. Only one face of the tablet was exposed to the dissolution medium, which contained a 0.01 M acetate/phosphate buffer system to minimise perturbation of the experimental pH from dissolution of the drug.\nStirring of the solution was continuous and at a constant rate of 100 rpm. The absorption data was converted to absolute sample weights using previously determined, pH-dependent, molar extinction coefficients. An appropriate wavelength range was chosen to ensure that spectroscopic data with an absorption value of <1.3 was analysed, avoiding erroneous dissolution results due to saturation of the UV light source."}, "[5]": {"assay": "Aerosol performance of DPI formulations (Cyclohaler, NGI)", "assay_type": "physicochemical", "description": "Capsules were hand filled with 20 mg of the 1% w/w RPL554 free base or salt variants: lactose blends, i.e. 200 μg salt per capsule, the fill weight of each capsule was recorded. Due to differences in the molecular weights of the RPL554 salt forms, the amount of RPL554 emitted per actuation varied as a function of molecular weight. The formulations were prepared with no adjustment for differences in molecular weight of the salts.\nThe powders were delivered via the Cyclohaler® DPI (PCH Pharmachemie, BV, The Netherlands). The Cyclohaler® DPI is a low resistance device and was operated at a flow rate of 90 L/min for 2.7 seconds. The cut off diameters for the NGI collection stages were calculated for the 90 L/min flow rate using the NGI User Guide (MSP Corporation, 2008).\nThe ED, FPD and FPF were determined from inertial impaction tests performed following the deposition of 5 capsules of each formulation into the NGI. For each capsule tested the combined weight of the Cyclohaler® and capsule was determined before and after operation to check that the dose had been delivered. The NGI was fitted with a pre-separator for these determinations. The central cup of the pre-separator was filled with 15 mL of diluent. Following deposition, the solution was recovered in a 20 mL volumetric flask and made up to volume with diluent. RPL554 was quantitatively recovered from the device, induction port and each of the NGI collection stages with 10 mL of diluent.\nThe volume of diluent used for each sample was selected to ensure RPL554 concentrations were above the limit of quantitation."}, "[6]": {"assay": "Solubility of RPL554 and salts in pMDI propellant systems", "assay_type": "physicochemical", "description": "Quantitative assessment of the solubility of RPL554 and salt variants in the propellant systems of selected pMDI formulations (three replicates of each formulation) was performed. pMDIs were directly coupled to an adaptor fitted with a 0.20 μm filter unit connected, in series to a 21 G needle, which was inserted via a rubber septum, into a cooled multi-dose glass vial. A 19 G filter needle was inserted through the septum to aid evaporation of propellant from the vial. Prior to the filtration process the vial was cooled in a mixture of dry ice and acetone to ensure that the pressure within the vial was reduced in order to facilitate collection of the output from the pMDI. Ten consecutive actuations of the pMDI were fired through the filter and collected in the vial. Between actuations the canister was shaken for approximately 10 seconds. The pMDI unit was weighed before and after the filtering procedure. The filtrate was stored at room temperature and allowed to evaporate to dryness.\nSamples were recovered by carefully rinsing the inside of the vials with 1 mL of recovery solution before transfer to HPLC vials for analysis. The estimated % of RPL554 solubilised within the canister was calculated from the starting mass of RPL554 within the canisters, which in turn was calculated using the theoretical molecular weight values of the RPL554 free base and salt variants shown in Table 13. The theoretical molecular weight estimates of the salts were provided by Verona."}, "[7]": {"assay": "Solubility of RPL554 salts in saline solutions, water and aqueous buffer solutions at 25° C. (HPLC)", "assay_type": "physicochemical", "details": "24 hours", "description": "The behaviour of salts of RPL554 were examined under the following conditions: • Phosphate buffered to pH 3.5 in saline, 0.9% w/w at 25° C. • Acetate buffered to pH 4.5 in saline, 0.9% w/w at 25° C. • Citro-Phosphate buffered to pH 4.5 in saline, 0.9% w/w at 25° C. • Phosphate buffered to pH 6.5 in saline, 0.9% w/w at 25° C. • Saline, 0.7, 0.9 and 1.1% w/w at 25° C. • Deionised water at 25° C.\nRPL554 salts and RPL554, ca 50 mg, were suspended in the various aqueous media, 1 ml, with agitation at the specified temperatures for 24 hours. The solids were isolated and dried in vacuo at 45° C. The retained filtrates were examined by HPLC.\nAdditional RPL554 methane sulfonate salt, ca 50 mg, was charged to the water mixtures at 25° C. and 37.5° C. in order to afford a suspension. In all other cases, suspensions were obtained.\nThe solubility of the RPL554 was determined by HPLC using a single point calibration and is expressed as RPL554 and not as the salt and are detailed in Table 6 and Table 7 for the various conditions utilised."}, "[8]": {"details": "pH 7.0, 0.15 M NaCl, 37° C., listed as methanesulfonate salt"}},
  "data": [
    {"compound": "COc1cc2c(cc1OC)-c1c/c(=N\\c3c(C)cc(C)cc3C)n(CCNC(N)=O)c(=O)n1CC2", "note": "[Methanesulfonate, RPL554 methanesulfonate]", "values": [
      {"measurement": "pH of aqueous suspension/solution", "setting": "[1]", "value": 2.69},
      {"measurement": "Measured Blend Content (% Theoretical)", "setting": "[2]; 1% w/w RPL554 variant: lactose powder blend, expressed as RPL554 base", "value": 99.13, "unit": "% Theoretical"},
      {"measurement": "**Adjusted RPL554 Content per capsule", "setting": "[2]; per 20 mg capsule of 1% w/w lactose blend, adjusted for measured blend content (% theoretical), as RPL554 base", "value": 165.05, "unit": "µg"},
      {"measurement": "D (0.1) (μm)", "setting": "[3]", "value": 0.45, "unit": "μm"},
      {"measurement": "D (0.5) (μm)", "setting": "[3]", "value": 1.20, "unit": "μm"},
      {"measurement": "D (0.9) (μm)", "setting": "[3]", "value": 3.46, "unit": "μm"},
      {"measurement": "dissolution compared with free base / other salts", "setting": "[4]; 2 hour experiments", "value": "higher dissolution than the rest of the salts"},
      {"measurement": "mass dissolved", "setting": "[4]; at 8.5 min", "value": 3960, "unit": "µg"},
      {"measurement": "mass dissolved", "setting": "[4]; at 11 min", "value": 5200, "unit": "µg"},
      {"measurement": "maximum pH change (decrease) during dissolution", "setting": "[4]; nominal start pH 7", "value": "about 0.1 pH units"},
      {"measurement": "Mass of salt (μg) dissolved after 2 hours, Average", "setting": "[4]; [8]", "value": 225, "unit": "µg"},
      {"measurement": "Mass of salt (μg) dissolved after 2 hours, Test 1", "setting": "[4]; [8]", "value": 160, "unit": "µg"},
      {"measurement": "Mass of salt (μg) dissolved after 2 hours, Test 2", "setting": "[4]; [8]", "value": 290, "unit": "µg"},
      {"measurement": "†Measured Mass of 1% w/w Blend Delivered per capsule", "setting": "[5]; Cyclohaler, 5 capsules containing 20 mg powder blend, mass from weight change of capsule-loaded device", "value": 19.96, "unit": "mg"},
      {"measurement": "††RPL554 Emitted (μg) per capsule (B)", "setting": "[5]; Cyclohaler, NGI, mass determined from HPLC analysis of recovered samples, as RPL554 base", "value": 118.69, "unit": "µg"},
      {"measurement": "Calculated RPL554 Content (μg) per capsule (A)", "setting": "[5]; calculated from delivered blend mass and measured blend content, as RPL554 base", "value": 164.72, "unit": "µg"},
      {"measurement": "Calculated RPL554 solubilised (%)", "setting": "[6]; in HFA 134", "value": "BLQ"},
      {"measurement": "Calculated Solubilised RPL554 μg per 50 μL actuation", "setting": "[6]; in HFA 134", "value": "BLQ"},
      {"measurement": "Solubility RPL554 (μg/g)", "setting": "[6]; in HFA 134, BLQ = below limit of quantitation (0.06 μg/mL)", "value": "BLQ"},
      {"measurement": "Estimated RPL554 solubilised (%)", "setting": "[6]; in HFA 134 with Ethanol/Tween", "value": 11.64, "unit": "%"},
      {"measurement": "Estimated Solubilised RPL554 μg per 50 μL actuation", "setting": "[6]; in HFA 134 with Ethanol/Tween", "value": 19.38, "unit": "µg"},
      {"measurement": "Solubility RPL554", "setting": "[6]; in HFA 134 with Ethanol/Tween", "value": 298.07, "unit": "µg/g"},
      {"measurement": "Solubility RPL554", "setting": "[6]; in HFA 134 with Ethanol/Tween, listed as methanesulfonate", "value": 298, "unit": "µg/g"},
      {"measurement": "Calculated RPL554 solubilised (%)", "setting": "[6]; in HFA 227", "value": "BLQ"},
      {"measurement": "Calculated Solubilised RPL554 μg per 50 μL actuation", "setting": "[6]; in HFA 227", "value": "BLQ"},
      {"measurement": "Solubility RPL554 (μg/g)", "setting": "[6]; in HFA 227", "value": "BLQ"},
      {"measurement": "Solubility as RPL554 (mg/ml) in 0.7 w/w % Saline", "setting": "[7]", "value": 5.01, "unit": "mg/mL"},
      {"measurement": "Solubility as RPL554 (mg/ml) in 0.9 w/w % Saline", "setting": "[7]", "value": 3.73, "unit": "mg/mL"},
      {"measurement": "Solubility as RPL554 (mg/ml) in 1.1 w/w % Saline", "setting": "[7]", "value": 2.52, "unit": "mg/mL"},
      {"measurement": "Solubility as RPL554 (mg/ml) in Water", "setting": "[7]; deionised water", "value": 44.52, "unit": "mg/mL"}
    ]}
  ]
}
